The values below come from paper PMC5590800 (Biomolecules & Therapeutics, 2017).

Several values for one entry are separate records, joined by “and”; a condition that tells them apart may be missing. Equal values may be shown once. Read-outs that look alike come from different tables or passages of the source.

The term IC50 denotes the concentration at which inhibition is half-maximal. As a reminder, the AUC(0-inf) is total exposure, with the tail of the curve extrapolated. Low values mean low exposure, high ones high exposure. A word on the AUC(0-t): it is exposure summed from dosing to a finite time, without extrapolation to infinity. Lower therefore signals low exposure. The Vd is a proportionality between amount in the body and measured concentration, not a real space. Higher therefore signals extensive tissue distribution. By half-life is commonly meant how long it takes for the measured level to halve. Lower therefore signals fast loss. In general, Cmax refers to the peak of the concentration-time curve. A word on the Tmax: it is the time at which the peak concentration occurs. A word on the Vd/F: it is the volume of distribution divided by bioavailability.

Data set [1] in a line: In vitro daunomycin cytotoxicity assay. It is filed as cell-based. The following applies: human.
The format of data set [2] is in vivo, Sprague-Dawley rats.
The conditions of data set [3]: oral administration; ref Sezgin-Bayindir et al., 2013; Cai et al., 2014; cited from earlier work.
Where [4] appears, read: male, Sprague-Dawley, rat, plasma, iv, 2 mg/kg.
[5] abbreviates: male, Sprague-Dawley, rat, plasma, po, 25 mg/kg.

Regarding `COc1cccc2c1C(=O)c1c(O)c3c(c(O)c1C2=O)C[C@@](O)(C(C)=O)C[C@@H]3O[C@H]1C[C@H](N)[C@H](O)[C@H](C)O1` [DNM, Daunomycin], the IC50 at 2 h in data set [1] came to 10.4 ± 0.53 µM.

For the molecule `CC(=O)O[C@H]1C(=O)[C@@]2(C)[C@H]([C@H](OC(=O)c3ccccc3)[C@]3(O)C[C@H](OC(=O)[C@H](O)[C@@H](NC(=O)c4ccccc4)c4ccccc4)C(C)=C1C3(C)C)[C@]1(OC(C)=O)CO[C@@H]1C[C@@H]2O` [PTX, Paclitaxel], the “Clt of PTX” value in data set [2] (PTX IV 2 mg/kg, rats, 2 mg/kg) was 0.328 L/h and 0.328 ± 0.097 L/h. Further, the “Relative BA of PTX” value in data set [2] (PTX PO 25 mg/kg alone (oral control), rats) turned out to be 100.0%. In data set [2] (PTX PO 25 mg/kg alone vs IV 2 mg/kg, rats), the “Absolute BA of PTX” value came to 2.0%. For the same molecule, the “Clt/F of PTX” value in data set [2] (PTX PO 25 mg/kg alone, rats) is on record as 12.7 ± 2.8 L/h. In addition, in data set [2] (setting [4]), the AUC(0-inf) was 1790 ± 522 ng·h/mL, the exposure AUC(0-t) is 1660 ± 499 ng·h/mL, the C0 turned out to be 3330 ± 1160 ng/mL and the distribution volume (Vd) is 2.06 ± 0.36 L. In data set [2] (setting [4]), the half-life was 4.55 ± 1.02 h and the k el is 4.47e-05 s⁻¹. In data set [2] (setting [5]), the AUC(0-inf) was 564 ± 116 ng·h/mL, the AUC(0-t) is 409 ± 47.2 ng·h/mL, the highest level (Cmax) was 60.6 ± 10.3 ng/mL and the Tmax stood at 4.2 ± 1.1 h. Moreover, in data set [2] (setting [5]), the Vd/F stood at 73.6 ± 14.9 L, the half-life was 4.26 ± 1.62 h and the k el was 5.06e-05 s⁻¹. Moreover, in data set [3], the “Oral bioavailability of PTX” value is below 5%.
